In patent US20240300932A1, “N-PHENYLIMINE DERIVATIVE AND PREPARATION METHOD AND USE THEREOF” (Guizhou University, priority 2023, published 2024):

What was measured:
Test in all cases: Post-emergence herbicidal activity test (stem and leaf spray, pot culture)
Type in all cases: in vivo
Conditions in all cases: 3 weeks after spraying
Amaranthus retroflexus = test system: Amaranthus retroflexus
In short: (§1)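 Read-out: fresh weight control rate 3 weeks post-spray, graded 5 (≥85%) down to 0 (<5%). Foliar spray at 2–3-leaf stage; rates 10, 5, 2.5 g/mu; acetone + Tween 80 formulation with methyl oleate synergist; greenhouse 20–30 °C, natural light.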

Setaria viridis = test system: Setaria viridis
In short: as §1

Abutilon theophrasti = test system: Abutilon theophrasti
In short: as §1

Portulaca oleracea = test system: Portulaca oleracea
In short: as §1

Echinochloa crusgalli = test system: Echinochloa crusgalli
In short: as §1

Trifoliumre pensL. = test system: Trifoliumre pensL.
In short: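 Pot-grown weeds in loam (pH 7), greenhouse at 20–30 °C, sprayed once post-emergence at the 2–3-leaf stage. Compound in acetone with Tween 80 plus methyl oleate oil (1.5 L/ha), applied at 10, 5 and 2.5 g/mu by spray tower. Effect scored 3 weeks after spraying, averaged over three repeats.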

SMILES | Post-emergence herbicidal activity, A. retroflexus (grade) (Amaranthus retroflexus; dosage 2.5 g/mu) | Post-emergence herbicidal activity, A. retroflexus (grade) (Amaranthus retroflexus; dosage 5 g/mu) | Post-emergence herbicidal activity, A. retroflexus (grade) (Amaranthus retroflexus; dosage 10 g/mu) | Post-emergence herbicidal activity, S. viridis (grade) (Setaria viridis; dosage 2.5 g/mu) | Post-emergence herbicidal activity, S. viridis (grade) (Setaria viridis; dosage 5 g/mu) | Post-emergence herbicidal activity, S. viridis (grade) (Setaria viridis; dosage 10 g/mu) | Post-emergence herbicidal activity, A. theophrasti (grade) (Abutilon theophrasti; dosage 2.5 g/mu) | Post-emergence herbicidal activity, A. theophrasti (grade) (Abutilon theophrasti; dosage 5 g/mu) | Post-emergence herbicidal activity, A. theophrasti (grade) (Abutilon theophrasti; dosage 10 g/mu) | Post-emergence herbicidal activity, P. oleracea (grade) (Portulaca oleracea; dosage 2.5 g/mu) | Post-emergence herbicidal activity, P. oleracea (grade) (Portulaca oleracea; dosage 5 g/mu) | Post-emergence herbicidal activity, P. oleracea (grade) (Portulaca oleracea; dosage 10 g/mu) | Post-emergence herbicidal activity, E. crusgalli (grade) (Echinochloa crusgalli; dosage 2.5 g/mu) | Post-emergence herbicidal activity, E. crusgalli (grade) (Echinochloa crusgalli; dosage 5 g/mu) | Post-emergence herbicidal activity, E. crusgalli (grade) (Echinochloa crusgalli; dosage 10 g/mu) | Post-emergence herbicidal activity, Trifoliumre pensL. (grade) (Trifoliumre pensL.; dosage 2.5 g/mu) | Post-emergence herbicidal activity, Trifoliumre pensL. (grade) (Trifoliumre pensL.; dosage 5 g/mu) | Post-emergence herbicidal activity, Trifoliumre pensL. (grade) (Trifoliumre pensL.; dosage 10 g/mu)
Cc1cccc(-c2nnc(COc3cc(N4C(=O)C5=C(CCCC5)C4=O)c(F)cc3Cl)o2)c1 [Compound B3, 2-(4-chloro-2-fluoro-5-(5-(3-tolyl)-1,3,4-oxadiazole-2-methoxy)phenyl)-4,5,6,7-tetrahydro-1H-isoindole-1,3(2H)-dione] | 5 (Grade 5: the growth control rate is greater than or equal to 85%) | 5 (Grade 5: the growth control rate is greater than or equal to 85%) | 5 (Grade 5: the growth control rate is greater than or equal to 85%) | 2 (Grade 2: the growth control rate is greater than or equal to 20% and less than 40%) | 3 (Grade 3: the growth control rate is greater than or equal to 40% and less than 60%) | 4 (Grade 4: the growth control rate is greater than or equal to 60% and less than 85%) | 5 (Grade 5: the growth control rate is greater than or equal to 85%) | 5 (Grade 5: the growth control rate is greater than or equal to 85%) | 5 (Grade 5: the growth control rate is greater than or equal to 85%) | 5 (Grade 5: the growth control rate is greater than or equal to 85%) | 5 (Grade 5: the growth control rate is greater than or equal to 85%) | 5 (Grade 5: the growth control rate is greater than or equal to 85%) | 1 (Grade 1: the growth control rate is greater than or equal to 5% and less than 20%) | 2 (Grade 2: the growth control rate is greater than or equal to 20% and less than 40%) | 3 (Grade 3: the growth control rate is greater than or equal to 40% and less than 60%) | 5 (Grade 5: the growth control rate is greater than or equal to 85%) | 5 (Grade 5: the growth control rate is greater than or equal to 85%) | 5 (Grade 5: the growth control rate is greater than or equal to 85%)
O=C1C2=C(CCCC2)C(=O)N1c1cc(OCc2nnc(-c3ccccc3F)o2)c(Cl)cc1F [Compound B4] | 5 (Grade 5: the growth control rate is greater than or equal to 85%) | 5 (Grade 5: the growth control rate is greater than or equal to 85%) | 5 (Grade 5: the growth control rate is greater than or equal to 85%) | 2 (Grade 2: the growth control rate is greater than or equal to 20% and less than 40%) | 3 (Grade 3: the growth control rate is greater than or equal to 40% and less than 60%) | 4 (Grade 4: the growth control rate is greater than or equal to 60% and less than 85%) | 4 (Grade 4: the growth control rate is greater than or equal to 60% and less than 85%) | 5 (Grade 5: the growth control rate is greater than or equal to 85%) | 5 (Grade 5: the growth control rate is greater than or equal to 85%) | 4 (Grade 4: the growth control rate is greater than or equal to 60% and less than 85%) | 5 (Grade 5: the growth control rate is greater than or equal to 85%) | 5 (Grade 5: the growth control rate is greater than or equal to 85%) | 1 (Grade 1: the growth control rate is greater than or equal to 5% and less than 20%) | 2 (Grade 2: the growth control rate is greater than or equal to 20% and less than 40%) | 3 (Grade 3: the growth control rate is greater than or equal to 40% and less than 60%) | 5 (Grade 5: the growth control rate is greater than or equal to 85%) | 5 (Grade 5: the growth control rate is greater than or equal to 85%) | 5 (Grade 5: the growth control rate is greater than or equal to 85%)
O=C1C2=C(CCCC2)C(=O)N1c1cc(OCc2nnc(-c3ccccc3Cl)o2)c(Cl)cc1F [Compound B5] | 5 (Grade 5: the growth control rate is greater than or equal to 85%) | 5 (Grade 5: the growth control rate is greater than or equal to 85%) | 5 (Grade 5: the growth control rate is greater than or equal to 85%) | 2 (Grade 2: the growth control rate is greater than or equal to 20% and less than 40%) | 3 (Grade 3: the growth control rate is greater than or equal to 40% and less than 60%) | 4 (Grade 4: the growth control rate is greater than or equal to 60% and less than 85%) | 5 (Grade 5: the growth control rate is greater than or equal to 85%) | 5 (Grade 5: the growth control rate is greater than or equal to 85%) | 5 (Grade 5: the growth control rate is greater than or equal to 85%) | 5 (Grade 5: the growth control rate is greater than or equal to 85%) | 5 (Grade 5: the growth control rate is greater than or equal to 85%) | 5 (Grade 5: the growth control rate is greater than or equal to 85%) | 1 (Grade 1: the growth control rate is greater than or equal to 5% and less than 20%) | 2 (Grade 2: the growth control rate is greater than or equal to 20% and less than 40%) | 3 (Grade 3: the growth control rate is greater than or equal to 40% and less than 60%) | 5 (Grade 5: the growth control rate is greater than or equal to 85%) | 5 (Grade 5: the growth control rate is greater than or equal to 85%) | 5 (Grade 5: the growth control rate is greater than or equal to 85%)
O=C1C2=C(CCCC2)C(=O)N1c1cc(OCc2nnc(-c3ccccc3Br)o2)c(Cl)cc1F [Compound B6] | 5 (Grade 5: the growth control rate is greater than or equal to 85%) | 5 (Grade 5: the growth control rate is greater than or equal to 85%) | 5 (Grade 5: the growth control rate is greater than or equal to 85%) | 2 (Grade 2: the growth control rate is greater than or equal to 20% and less than 40%) | 3 (Grade 3: the growth control rate is greater than or equal to 40% and less than 60%) | 4 (Grade 4: the growth control rate is greater than or equal to 60% and less than 85%) | 5 (Grade 5: the growth control rate is greater than or equal to 85%) | 5 (Grade 5: the growth control rate is greater than or equal to 85%) | 5 (Grade 5: the growth control rate is greater than or equal to 85%) | 5 (Grade 5: the growth control rate is greater than or equal to 85%) | 5 (Grade 5: the growth control rate is greater than or equal to 85%) | 5 (Grade 5: the growth control rate is greater than or equal to 85%) | 1 (Grade 1: the growth control rate is greater than or equal to 5% and less than 20%) | 2 (Grade 2: the growth control rate is greater than or equal to 20% and less than 40%) | 3 (Grade 3: the growth control rate is greater than or equal to 40% and less than 60%) | 5 (Grade 5: the growth control rate is greater than or equal to 85%) | 5 (Grade 5: the growth control rate is greater than or equal to 85%) | 5 (Grade 5: the growth control rate is greater than or equal to 85%)
